{"source": "paper PMC10046369", "about": "“Low-Affinity/High-Selectivity Dopamine Transport Inhibition Sufficient to Rescue Cognitive Functions in the Aging Rat” (Biomolecules, 2023)", "test_in_all_cases": "biochemical", "set-up_in_all_cases": "KINOMEscan competition binding panel, per cent of control", "details_in_all_cases": "read-out: %Ctrl @ 2800nM", "key": {"DDR1": {"target": "DDR1 (Homo sapiens, UniProt Q08345)", "sequence (Q08345 whole entry)": "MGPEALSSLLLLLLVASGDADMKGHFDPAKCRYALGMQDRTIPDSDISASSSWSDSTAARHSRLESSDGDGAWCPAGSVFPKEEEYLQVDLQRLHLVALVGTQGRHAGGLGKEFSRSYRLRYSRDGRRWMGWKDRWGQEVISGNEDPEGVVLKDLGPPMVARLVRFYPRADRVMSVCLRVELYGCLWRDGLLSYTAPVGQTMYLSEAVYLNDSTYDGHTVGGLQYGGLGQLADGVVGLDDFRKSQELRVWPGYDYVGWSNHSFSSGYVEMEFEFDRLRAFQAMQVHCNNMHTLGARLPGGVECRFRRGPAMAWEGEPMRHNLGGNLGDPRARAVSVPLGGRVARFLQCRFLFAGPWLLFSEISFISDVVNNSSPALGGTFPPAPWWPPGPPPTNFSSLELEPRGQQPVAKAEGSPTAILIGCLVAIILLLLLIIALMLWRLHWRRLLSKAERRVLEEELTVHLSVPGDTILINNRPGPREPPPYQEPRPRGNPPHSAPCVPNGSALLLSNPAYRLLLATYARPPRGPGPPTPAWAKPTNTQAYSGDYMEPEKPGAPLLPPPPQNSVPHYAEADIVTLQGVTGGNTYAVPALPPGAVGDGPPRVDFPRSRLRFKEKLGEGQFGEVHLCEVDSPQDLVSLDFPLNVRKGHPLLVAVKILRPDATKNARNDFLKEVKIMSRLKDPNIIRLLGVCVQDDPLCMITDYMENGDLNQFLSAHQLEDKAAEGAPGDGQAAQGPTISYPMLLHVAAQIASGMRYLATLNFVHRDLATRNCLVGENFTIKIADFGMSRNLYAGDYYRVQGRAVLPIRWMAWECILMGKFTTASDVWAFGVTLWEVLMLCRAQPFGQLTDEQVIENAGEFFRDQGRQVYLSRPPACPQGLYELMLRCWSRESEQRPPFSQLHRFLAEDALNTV", "summary_of_the_method": "(§1)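 Values are expressed as percent of control, calculated as ((test − positive control)/(negative control − positive control)) × 100, so lower numbers mean stronger hits. Binding was measured by KINOMEscan competition assay in a 450-kinase human panel including disease mutants, using the contractor's validated protocol.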"}, "GRK3": {"target": "GRK3 (Homo sapiens, UniProt P35626)", "summary_of_the_method": "as §1"}, "NLK": {"target": "NLK (Homo sapiens, UniProt Q9UBE8)", "summary_of_the_method": "as §1"}, "SIK2": {"target": "SIK2 (Homo sapiens, UniProt Q9H0K1)", "summary_of_the_method": "as §1"}, "ROCK1": {"target": "ROCK1 (Homo sapiens, UniProt Q13464)", "summary_of_the_method": "as §1"}, "TESK1": {"target": "TESK1 (Homo sapiens, UniProt Q15569)", "summary_of_the_method": "as §1"}, "KIT(D816H)": {"target": "KIT(D816H) (Homo sapiens, UniProt P10721, D816H)", "summary_of_the_method": "as §1"}, "ERBB4": {"target": "ERBB4 (Homo sapiens, UniProt Q15303)", "sequence (Q15303 whole entry)": "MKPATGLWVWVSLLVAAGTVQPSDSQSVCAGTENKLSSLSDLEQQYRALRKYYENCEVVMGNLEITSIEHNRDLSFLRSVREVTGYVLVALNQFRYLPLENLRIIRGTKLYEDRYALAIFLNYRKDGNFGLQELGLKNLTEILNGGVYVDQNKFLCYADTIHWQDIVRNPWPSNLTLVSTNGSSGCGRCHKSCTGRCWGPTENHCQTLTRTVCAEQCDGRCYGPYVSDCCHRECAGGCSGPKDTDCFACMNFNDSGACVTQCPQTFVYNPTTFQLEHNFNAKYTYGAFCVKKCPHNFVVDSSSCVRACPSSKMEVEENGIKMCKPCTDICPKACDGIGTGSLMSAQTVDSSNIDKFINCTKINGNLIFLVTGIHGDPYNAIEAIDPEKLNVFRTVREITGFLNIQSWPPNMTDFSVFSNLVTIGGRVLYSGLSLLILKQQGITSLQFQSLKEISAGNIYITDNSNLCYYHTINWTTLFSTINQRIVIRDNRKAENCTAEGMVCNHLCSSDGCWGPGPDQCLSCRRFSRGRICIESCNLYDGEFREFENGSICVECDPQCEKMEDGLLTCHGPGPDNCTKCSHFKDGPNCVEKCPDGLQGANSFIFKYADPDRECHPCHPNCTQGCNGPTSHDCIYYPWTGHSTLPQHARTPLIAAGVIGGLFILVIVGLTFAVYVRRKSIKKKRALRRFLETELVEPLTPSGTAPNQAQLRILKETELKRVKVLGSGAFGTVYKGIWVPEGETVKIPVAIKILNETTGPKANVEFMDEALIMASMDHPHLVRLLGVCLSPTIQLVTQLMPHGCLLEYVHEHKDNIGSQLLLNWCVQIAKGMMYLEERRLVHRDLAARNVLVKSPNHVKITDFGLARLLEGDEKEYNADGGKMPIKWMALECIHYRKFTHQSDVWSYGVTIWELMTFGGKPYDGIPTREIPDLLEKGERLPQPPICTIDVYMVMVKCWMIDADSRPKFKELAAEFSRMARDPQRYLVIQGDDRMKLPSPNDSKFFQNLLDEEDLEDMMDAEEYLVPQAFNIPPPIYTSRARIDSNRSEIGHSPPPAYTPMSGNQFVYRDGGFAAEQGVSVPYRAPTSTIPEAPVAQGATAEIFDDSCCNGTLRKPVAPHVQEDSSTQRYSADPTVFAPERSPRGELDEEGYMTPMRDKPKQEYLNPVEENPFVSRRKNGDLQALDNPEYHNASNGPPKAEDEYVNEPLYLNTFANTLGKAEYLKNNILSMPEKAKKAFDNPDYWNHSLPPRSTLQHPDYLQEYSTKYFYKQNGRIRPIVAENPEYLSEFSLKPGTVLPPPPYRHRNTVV", "summary_of_the_method": "as §1"}, "CIT": {"target": "CIT (Homo sapiens, UniProt O14578)", "summary_of_the_method": "as §1"}, "GAK": {"target": "GAK (Homo sapiens, UniProt O14976)", "summary_of_the_method": "as §1"}, "IRAK1": {"target": "IRAK1 (Homo sapiens, UniProt P51617)", "sequence (P51617 whole entry)": "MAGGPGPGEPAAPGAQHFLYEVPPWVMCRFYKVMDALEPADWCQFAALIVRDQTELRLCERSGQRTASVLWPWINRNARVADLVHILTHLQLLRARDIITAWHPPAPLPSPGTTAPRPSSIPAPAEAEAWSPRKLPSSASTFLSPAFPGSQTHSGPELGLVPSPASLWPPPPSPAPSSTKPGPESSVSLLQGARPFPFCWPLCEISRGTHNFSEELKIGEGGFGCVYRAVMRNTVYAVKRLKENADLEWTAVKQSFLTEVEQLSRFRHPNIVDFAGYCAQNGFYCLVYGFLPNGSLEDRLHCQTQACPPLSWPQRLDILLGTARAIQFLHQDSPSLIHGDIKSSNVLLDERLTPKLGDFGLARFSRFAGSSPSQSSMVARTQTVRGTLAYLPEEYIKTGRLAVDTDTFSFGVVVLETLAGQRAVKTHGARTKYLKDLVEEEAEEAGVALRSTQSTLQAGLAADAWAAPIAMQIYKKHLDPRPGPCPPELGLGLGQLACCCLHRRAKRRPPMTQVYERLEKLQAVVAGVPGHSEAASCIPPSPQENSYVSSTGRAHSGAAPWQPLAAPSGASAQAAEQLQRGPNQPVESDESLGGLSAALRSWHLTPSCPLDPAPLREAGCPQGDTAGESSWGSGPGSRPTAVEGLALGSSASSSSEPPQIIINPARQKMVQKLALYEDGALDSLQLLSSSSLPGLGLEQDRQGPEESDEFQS", "summary_of_the_method": "as §1"}, "MELK": {"target": "MELK (Homo sapiens, UniProt Q14680)", "summary_of_the_method": "as §1"}, "MST3": {"target": "T1, MST3 (Homo sapiens, UniProt Q9Y6E0)", "T1 construct": "gene STK24", "summary_of_the_method": "as §1"}, "BLK": {"target": "BLK (Homo sapiens, UniProt P51451)", "summary_of_the_method": "as §1"}, "NEK10": {"target": "NEK10 (Homo sapiens, UniProt Q6ZWH5)", "summary_of_the_method": "as §1"}, "NEK4": {"target": "NEK4 (Homo sapiens, UniProt P51957)", "sequence (P51957 whole entry)": "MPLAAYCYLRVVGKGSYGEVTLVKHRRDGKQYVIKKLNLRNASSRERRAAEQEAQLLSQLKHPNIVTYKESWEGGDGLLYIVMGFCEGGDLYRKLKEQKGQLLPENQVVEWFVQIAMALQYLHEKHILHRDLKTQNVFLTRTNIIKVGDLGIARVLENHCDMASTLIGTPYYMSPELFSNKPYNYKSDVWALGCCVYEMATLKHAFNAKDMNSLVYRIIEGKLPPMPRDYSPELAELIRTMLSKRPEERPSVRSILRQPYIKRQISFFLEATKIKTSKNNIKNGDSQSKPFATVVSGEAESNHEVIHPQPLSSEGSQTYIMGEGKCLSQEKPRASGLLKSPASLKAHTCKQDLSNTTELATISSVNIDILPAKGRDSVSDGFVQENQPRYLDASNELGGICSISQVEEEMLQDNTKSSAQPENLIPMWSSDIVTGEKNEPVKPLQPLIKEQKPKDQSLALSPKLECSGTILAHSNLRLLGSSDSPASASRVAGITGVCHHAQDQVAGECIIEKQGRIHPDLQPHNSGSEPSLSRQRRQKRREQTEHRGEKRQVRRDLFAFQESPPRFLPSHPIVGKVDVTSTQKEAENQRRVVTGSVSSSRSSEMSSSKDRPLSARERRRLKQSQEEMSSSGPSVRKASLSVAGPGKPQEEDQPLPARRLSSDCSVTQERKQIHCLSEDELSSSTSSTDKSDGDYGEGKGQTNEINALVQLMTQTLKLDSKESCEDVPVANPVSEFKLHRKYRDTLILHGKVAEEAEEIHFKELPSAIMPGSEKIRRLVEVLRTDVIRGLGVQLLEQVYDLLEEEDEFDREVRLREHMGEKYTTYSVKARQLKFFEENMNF", "summary_of_the_method": "as §1"}, "ABL2": {"target": "ABL2 (Homo sapiens, UniProt P42684)", "sequence (P42684 whole entry)": "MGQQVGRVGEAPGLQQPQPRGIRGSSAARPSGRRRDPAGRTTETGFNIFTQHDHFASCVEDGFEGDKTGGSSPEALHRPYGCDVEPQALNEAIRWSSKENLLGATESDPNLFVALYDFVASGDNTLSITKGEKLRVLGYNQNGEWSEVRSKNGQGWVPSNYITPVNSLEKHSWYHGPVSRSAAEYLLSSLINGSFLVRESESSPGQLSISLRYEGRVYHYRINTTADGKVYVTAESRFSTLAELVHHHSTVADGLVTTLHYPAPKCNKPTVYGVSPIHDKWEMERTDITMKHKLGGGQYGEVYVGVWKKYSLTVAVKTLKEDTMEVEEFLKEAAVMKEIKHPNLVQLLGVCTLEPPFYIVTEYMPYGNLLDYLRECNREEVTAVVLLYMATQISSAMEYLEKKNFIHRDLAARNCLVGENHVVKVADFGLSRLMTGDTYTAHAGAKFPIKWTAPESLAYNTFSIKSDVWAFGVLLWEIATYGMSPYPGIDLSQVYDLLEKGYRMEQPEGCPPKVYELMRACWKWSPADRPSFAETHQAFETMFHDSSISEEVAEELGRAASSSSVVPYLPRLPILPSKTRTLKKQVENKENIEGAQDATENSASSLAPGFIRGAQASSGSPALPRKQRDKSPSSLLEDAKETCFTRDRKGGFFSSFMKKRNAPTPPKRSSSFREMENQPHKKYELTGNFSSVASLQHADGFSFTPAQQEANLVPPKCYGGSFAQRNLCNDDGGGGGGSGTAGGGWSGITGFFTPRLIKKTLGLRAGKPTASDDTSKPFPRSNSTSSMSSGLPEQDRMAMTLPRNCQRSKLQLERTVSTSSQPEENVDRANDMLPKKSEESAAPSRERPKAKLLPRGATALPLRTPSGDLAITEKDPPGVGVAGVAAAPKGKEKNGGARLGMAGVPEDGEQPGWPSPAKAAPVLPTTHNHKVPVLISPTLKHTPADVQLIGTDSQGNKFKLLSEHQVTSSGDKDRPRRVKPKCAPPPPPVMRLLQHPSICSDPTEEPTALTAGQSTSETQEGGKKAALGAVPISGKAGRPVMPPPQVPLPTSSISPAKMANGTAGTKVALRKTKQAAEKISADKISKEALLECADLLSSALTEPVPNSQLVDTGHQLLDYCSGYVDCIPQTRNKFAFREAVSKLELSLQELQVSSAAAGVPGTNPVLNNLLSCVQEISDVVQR", "summary_of_the_method": "as §1"}, "[1]": {"target": "T2, RSK1(Kin.Dom.1-N-terminal) (Homo sapiens, UniProt Q15418)", "T2 construct": "gene RPS6KA1; Kin.Dom.1-N-terminal", "summary_of_the_method": "as §1"}, "PRKD2": {"target": "PRKD2 (Homo sapiens, UniProt Q9BZL6)", "summary_of_the_method": "as §1"}, "IRAK3": {"target": "IRAK3 (Homo sapiens, UniProt Q9Y616)", "summary_of_the_method": "as §1"}, "[2]": {"target": "T3, ABL1(T315I)-phosphorylated (Homo sapiens, UniProt P00519, T315I)", "T3 construct": "phosphorylated", "summary_of_the_method": "as §1"}, "ROCK2": {"target": "ROCK2 (Homo sapiens, UniProt O75116)", "summary_of_the_method": "as §1"}, "CSNK1A1": {"target": "CSNK1A1 (Homo sapiens, UniProt P48729)", "summary_of_the_method": "as §1"}, "[3]": {"target": "T4, ABL1(E255K)-phosphorylated (Homo sapiens, UniProt P00519, E255K)", "T4 construct": "phosphorylated", "summary_of_the_method": "as §1"}, "PHKG1": {"target": "PHKG1 (Homo sapiens, UniProt Q16816)", "summary_of_the_method": "as §1"}, "EGFR(E746-A750del)": {"target": "EGFR(E746-A750del) (Homo sapiens, UniProt P00533, DEL746-750)", "summary_of_the_method": "as §1"}}}
{"smiles": "[O-][S@@+](Cc1cncs1)C(c1ccccc1)c1ccccc1", "note": "[S-CE-123, (S)-5-((Benzhydrylsulfinyl)Methyl)Thiazole]", "values": [{"measurement": "remaining binding at 2.8 µM", "setting": "DDR1", "value": 100, "unit": "%"}, {"measurement": "remaining binding at 2.8 µM", "setting": "GRK3", "value": 100, "unit": "%"}, {"measurement": "remaining binding at 2.8 µM", "setting": "NLK", "value": 97, "unit": "%"}, {"measurement": "remaining binding at 2.8 µM", "setting": "SIK2", "value": 100, "unit": "%"}, {"measurement": "remaining binding at 2.8 µM", "setting": "ROCK1", "value": 100, "unit": "%"}, {"measurement": "remaining binding at 2.8 µM", "setting": "TESK1", "value": 96, "unit": "%"}, {"measurement": "remaining binding at 2.8 µM", "setting": "KIT(D816H)", "value": 100, "unit": "%"}, {"measurement": "remaining binding at 2.8 µM", "setting": "ERBB4", "value": 96, "unit": "%"}, {"measurement": "remaining binding at 2.8 µM", "setting": "CIT", "value": 74, "unit": "%"}, {"measurement": "remaining binding at 2.8 µM", "setting": "GAK", "value": 100, "unit": "%"}, {"measurement": "remaining binding at 2.8 µM", "setting": "IRAK1", "value": 91, "unit": "%"}, {"measurement": "remaining binding at 2.8 µM", "setting": "MELK", "value": 67, "unit": "%"}, {"measurement": "remaining binding at 2.8 µM", "setting": "MST3", "value": 87, "unit": "%"}, {"measurement": "remaining binding at 2.8 µM", "setting": "BLK", "value": 90, "unit": "%"}, {"measurement": "remaining binding at 2.8 µM", "setting": "NEK10", "value": 100, "unit": "%"}, {"measurement": "remaining binding at 2.8 µM", "setting": "NEK4", "value": 83, "unit": "%"}, {"measurement": "remaining binding at 2.8 µM", "setting": "ABL2", "value": 99, "unit": "%"}, {"measurement": "remaining binding at 2.8 µM", "setting": "[1]", "value": 80, "unit": "%"}, {"measurement": "remaining binding at 2.8 µM", "setting": "PRKD2", "value": 98, "unit": "%"}, {"measurement": "remaining binding at 2.8 µM", "setting": "IRAK3", "value": 96, "unit": "%"}, {"measurement": "remaining binding at 2.8 µM", "setting": "[2]", "value": 98, "unit": "%"}, {"measurement": "remaining binding at 2.8 µM", "setting": "ROCK2", "value": 100, "unit": "%"}, {"measurement": "remaining binding at 2.8 µM", "setting": "CSNK1A1", "value": 74, "unit": "%"}, {"measurement": "remaining binding at 2.8 µM", "setting": "[3]", "value": 73, "unit": "%"}, {"measurement": "remaining binding at 2.8 µM", "setting": "PHKG1", "value": 100, "unit": "%"}, {"measurement": "remaining binding at 2.8 µM", "setting": "EGFR(E746-A750del)", "value": 93, "unit": "%"}]}
